Literature values in patent US7749547B2, “Nutritional composition and method for increasing creatine uptake and retention in skeletal muscle, increasing muscle mass and strength, increasing exercise capacity and for aiding recovery following exercise” (priority 2006, dated 2010).

Assays:
[1] = supplemented rats
[2] = rodents; reduced food intake, enhanced energy expenditure
[3] = supplementation
[4] = not given; remark: listed apart in the source
[5] = healthy volunteers

Compound: O=C(O)CCCCC1CCSS1 (stereo not drawn) [ALA, Alpha Lipoic Acid]
- age-related changes in mitochondrial function, accumulated oxidative damage and metabolic rate [1]: improved
- body weight [2]: profound weight loss

Compound: [Cr] [Chromium]
- lean mass (clinical): increase lean mass
- body fat (combined with exercise): reduce body fat
- high density lipoproteins (HDL) (human, in vivo): increase high density lipoproteins

Compound: CN(CC(=O)O)C(=N)N [Creatine, N-methyl-N-guanyl Glycine]
- concentration of Creatine in the muscle [3]: increase the concentration of Creatine in the muscle
- resynthesis of Phosphocreatine [3]: increase in the resynthesis of Phosphocreatine
- high-intensity exercise performance ([4]; males and females): improved
- strength and fatigue ([4]; supplemental Creatine): improve strength and reduce fatigue
- muscle fiber cross sectional area ([4]; supplementation): increases muscle fiber cross sectional area
- strength and fat-free mass ([4]; with resistance training, sedentary females and male football players): increased strength and fat-free mass over a placebo

Compound: Isomalt
- bowel function and metabolic function [5]: promote healthy bowel function without impairing metabolic function
